Assay results taken from ChEMBL document CHEMBL1153574, “Novel topoisomerase I-targeting antitumor agents synthesized from the N,N,N-trimethylammonium derivative of ARC-111, 5H-2,3-dimethoxy-8,9-methylenedioxy-5-[(2-N,N,N-trimethylammonium)ethyl]dibenzo[c,h][1,6]naphthyridin-6-one iodide” (Eur J Med Chem, 2009).

How the values were obtained:
P388 = assay: Cytotoxicity against mouse P388 cells after 4 days by MTT assay; type: functional, cell-based; conditions: P388, 96 h
[1] = Cytotoxicity against multidrug resistant human KBV1 cells overexpressing MDR1 after 4 days by MTT assay; type: functional, cell-based; conditions: KB-V1, 96 h
[2] = Cytotoxicity against human CPT-K5 cells after 4 days by MTT assay; type: functional, cell-based; conditions: CPT-K5, 96 h
[3] = Cytotoxicity against multidrug resistant human KBH5.0 cells overexpressing BCRP after 4 days by MTT assay; type: functional, cell-based; conditions: KBH5.0 cell, 96 h
[4] = Cytotoxicity against human KB3-1 cells after 4 days after MTT assay; type: functional, cell-based; conditions: KB 3-1, 96 h
[5] = Cytotoxicity against human RPMI8402 cells after 4 days by MTT assay; type: functional, cell-based; conditions: RPMI 8402, 96 h
[6] = molecular target: T1, DNA topoisomerase 1 (Homo sapiens) (UniProt P11387); assay: Effect on human topoisomerase 1 expressed in Sf9 insect cells assessed as effective concentration required for 10% cleavage of plasmid DNA relative to topotecan
T1 sequence (whole entry): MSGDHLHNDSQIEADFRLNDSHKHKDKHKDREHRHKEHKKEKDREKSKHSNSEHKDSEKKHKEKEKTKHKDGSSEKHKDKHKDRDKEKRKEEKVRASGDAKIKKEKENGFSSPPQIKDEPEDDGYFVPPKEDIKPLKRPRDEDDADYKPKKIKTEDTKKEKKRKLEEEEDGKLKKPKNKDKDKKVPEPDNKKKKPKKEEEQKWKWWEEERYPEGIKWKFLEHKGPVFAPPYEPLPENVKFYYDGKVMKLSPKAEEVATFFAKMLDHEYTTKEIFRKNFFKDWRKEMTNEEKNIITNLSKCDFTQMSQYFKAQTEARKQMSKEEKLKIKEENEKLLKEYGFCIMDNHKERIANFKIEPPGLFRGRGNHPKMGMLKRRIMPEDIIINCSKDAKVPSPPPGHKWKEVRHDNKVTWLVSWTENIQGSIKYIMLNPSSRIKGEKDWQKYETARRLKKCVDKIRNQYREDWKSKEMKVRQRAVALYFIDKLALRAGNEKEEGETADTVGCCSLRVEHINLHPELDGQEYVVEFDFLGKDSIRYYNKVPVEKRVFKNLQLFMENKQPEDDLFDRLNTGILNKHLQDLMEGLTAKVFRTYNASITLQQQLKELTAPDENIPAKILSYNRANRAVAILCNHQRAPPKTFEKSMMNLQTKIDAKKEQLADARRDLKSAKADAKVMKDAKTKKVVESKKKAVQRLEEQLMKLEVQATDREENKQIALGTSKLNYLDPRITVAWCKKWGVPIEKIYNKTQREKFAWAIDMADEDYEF

[7] = Cytotoxicity against mouse P388/CPT45 cells after 4 days by MTT assay; type: functional, cell-based; conditions: P388CPT45, 96 h

Row | SMILES | IC50 (P388) [nM] | IC50 [1] [nM] | IC50 [2] [nM] | IC50 [3] [nM] | IC50 [4] [nM] | IC50 [5] [nM] | Activity [6] | IC50 [7] [nM]
1 | COc1cc2c(=O)n(CCN(C)CCN(C)C)c3c4cc5c(cc4ncc3c2cc1OC)OCO5 | 35 | 600 | 2200 | 210 | 50 | 45 | 0.7 | 70
2 | COc1cc2c(=O)n(CCNC3CC3)c3c4cc5c(cc4ncc3c2cc1OC)OCO5 | 9 | 40 | 300 | 8 | 4 | 10 | 0.3 | 110
3 | CC[C@@]1(O)C(=O)OCc2c1cc1n(c2=O)Cc2cc3ccccc3nc2-1 |  |  |  |  |  |  | 0.2 | 
4 | COc1cc2c(=O)n(CCN(CCO)CCO)c3c4cc5c(cc4ncc3c2cc1OC)OCO5 | 30 | 350 | 320 | 280 | 23 | 40 | 0.48 | 250
5 | COc1cc2c(=O)n(CCNCCN(C)C)c3c4cc5c(cc4ncc3c2cc1OC)OCO5 | 75 | 3400 | 2600 | 750 | 60 | 140 | 6.4 | 340
6 | COc1cc2c(=O)n(CCOC(=O)CN(C)C)c3c4cc5c(cc4ncc3c2cc1OC)OCO5 | 27 | 35 | 4600 | 50 | 32 | 30 | 0.3 | 390
7 | COc1cc2c(=O)n(CCN(C)CCO)c3c4cc5c(cc4ncc3c2cc1OC)OCO5 | 12 | 60 | 580 | 50 | 6 | 15 | 0.04 | 330
8 | CCN(CC)CCNCCn1c(=O)c2cc(OC)c(OC)cc2c2cnc3cc4c(cc3c21)OCO4 | 230 | 1200 | 9000 | 300 | 40 | 150 | 5.2 | 350
9 | COc1cc2c(=O)n(CCNC(CO)(CO)CO)c3c4cc5c(cc4ncc3c2cc1OC)OCO5 | 330 | 1800 | 7000 | 1800 | 250 | 330 | 2 | 3500
10 | COc1cc2c(=O)n(CCn3ccnn3)c3c4cc5c(cc4ncc3c2cc1OC)OCO5 | 4400 | 10000 | > 10000 | 6000 | 700 | 3500 | > 10 | > 10000
11 | COc1cc2c(=O)n(CCO)c3c4cc5c(cc4ncc3c2cc1OC)OCO5 | 30 | 40 | > 10000 | 40 | 27 | 30 | 4.7 | 900
12 | COc1cc2c(=O)n(CCn3ccnc3)c3c4cc5c(cc4ncc3c2cc1OC)OCO5 | 200 | 1800 | > 10000 | 580 | 150 | 210 | 2.3 | > 10000
13 | COc1cc2c(=O)n(CCNC(CO)CO)c3c4cc5c(cc4ncc3c2cc1OC)OCO5 | 80 | 2000 | > 10000 | 750 | 26 | 54 | 0.2 | 
14 | COc1cc2c(=O)n(CCN(C)C)c3c4cc5c(cc4ncc3c2cc1OC)OCO5 |  | 5 |  |  | 5 |  | 0.3 | 
